{"source": "patent US5280014A", "about": "“Treatment of obesity and essential hypertension and related disorders” (Amylin Pharmaceuticals, Inc., priority 1991, dated 1994)", "key": {"[1]": {"tested_on": "spontaneously hypertensive (SHR) rats", "conditions": "continuous intravenous infusion of purified rat relaxin; single reported study; cited from earlier work"}, "normal rats": {"tested_on": "normal rats", "assay": "intravenous amylin bolus in normal rats (hyperglycemia, respiratory quotient)", "type": "in vivo, rat", "from_the_text": "The hyperglycemia is partly accounted for by an increase in hepatic (endogenous) glucose output and partly by an increased impediment in peripheral glucose disposal."}, "[2]": {"tested_on": "isolated soleus muscle from rats", "assay": "amylin antagonist assay: incorporation of radiolabelled glucose into glycogen in isolated soleus muscle", "type": "cell-based, rat", "experimental": "Insulin was obtained as Humulin-R, 100 U/mL, recombinant human insulin (Eli Lilly, Indianapolis, Ind.). […] An antagonist assay was performed in vitro using the isolated soleus muscle from rats.\nThe right and left soleus muscles of 4-hour fasted rats were removed immediately after decapitation of the animals, divided in half and temporarily placed in physiological saline. Muscles were assigned to different treatment groups so that the 4 muscle pieces from each animal were evenly distributed among the 9 flasks representing the different assay conditions. […] Pharmacologically active agents were added to the 10mL of medium to result in the above stated concentrations and mixtures. […]\nDissolved glycogen was precipitated out by addition of 3 mL absolute ethanol and cooling to -20° C. overnight. […] The remaining glycogen was redissolved in water and scintillation fluid and counted for ^14 C.\nFrom a knowledge of the specific activity of ^14 C-glucose in the 5.5 mM glucose of the incubation medium, and the total ^14 C counts remaining in the glycogen extracted from each muscle, it was possible to determine the net rate of glycogen synthesis over the final 60 minute incubation period. This was normalized per mass of muscle and expressed as μmoles of glucosyl units incorporated into glycogen per hour per gram of muscle. […]"}, "[3]": {"tested_on": "isolated incubated skeletal muscles of the rat", "assay": "effect of amylin on glucose uptake and glycogen synthesis in isolated incubated skeletal muscle", "type": "cell-based"}, "isolated adipocytes [4]": {"tested_on": "isolated adipocytes", "assay": "formation of CO2 or triacylglycerol from glucose in isolated adipocytes", "type": "cell-based"}, "isolated adipocytes [5]": {"tested_on": "isolated adipocytes", "conditions": "Cooper et al. 1988; cited from earlier work"}, "anaesthetised rats": {"tested_on": "anaesthetised rats", "assay": "hyperinsulinemic euglycemic glucose clamp in rats infused with insulin and CGRP", "conditions": "for steady-state glucose infusion rate necessary to maintain euglycemia: FIG. 2A: insulin 1.8 mU/kg/min for 210 min, CGRP 0.02 ug/kg/min added from 80-150 min; for hepatic glucose output (HGO) / suppression of hepatic glucose output (HGO): FIG. 2B clamp, insulin alone or insulin in the presence of CGRP; for suppression of hepatic glucose output (HGO): from basal 11.2±0.7 mg/kg/min; for mean steady-state glucose infusion rate: FIG. 2B: CGRP 0.02 ug/kg/min plus insulin 1.8 mU/kg/min for 75 min, then insulin alone for 130 min; for mean steady-state plasma insulin level: insulin 1.8 mU/kg/min", "from_the_text": "In these experiments, the overall glucose disposal rate (GDR) equals the glucose rate plus hepatic glucose output (HGO).\nIn addition to stimulation of peripheral glucose disposal, another important in vivo glucoregulatory effect of insulin is to inhibit HGO."}, "isolated adipocytes [6]": {"tested_on": "isolated adipocytes", "assay": "2-deoxyglucose uptake in isolated adipocytes", "type": "cell-based", "experimental": "(§1) In vitro studies in isolated adipocytes and cultured BC3H-1 myocytes were also conducted. […] Since 80-90% of in vivo insulin-stimulated glucose disposal represents skeletal muscle glucose uptake, an in vitro muscle cell system was also examined."}, "BC3H-1 myocytes": {"tested_on": "BC3H-1 myocytes", "assay": "insulin-stimulated glucose uptake in cultured BC3H-1 myocytes", "type": "cell-based", "conditions": "10^-8 M CGRP, all insulin concentrations, FIG. 4", "experimental": "as §1"}, "[7]": {"conditions": "FIG. 2B protocol, last 20 min of each period"}}, "data": [{"substance": "relaxin", "values": [{"measurement": "effect on systolic blood pressure", "setting": "[1]", "value": "highly effective in reducing systolic blood pressure"}]}, {"substance": "amylin", "values": [{"measurement": "persistence of hyperglycemia", "setting": "normal rats; 100 μg intravenous bolus", "value": "persists for several hours"}, {"measurement": "time to hyperglycemia at diabetic levels", "setting": "normal rats; 100 μg intravenous bolus", "value": "15 to 30", "unit": "min"}, {"measurement": "blood glucose level reached (hyperglycemia)", "setting": "normal rats; 100 μg intravenous bolus, eight normal rats", "value": "around 200 mg/dL"}, {"measurement": "change in respiratory quotient (RQ)", "setting": "normal rats; during somatostatin infusion (no endogenous insulin release), fasted animal", "value": "no change in RQ"}, {"measurement": "change in respiratory quotient (RQ)", "setting": "normal rats; somatostatin absent, insulin allowed to increase", "value": "increase in respiratory quotient"}, {"measurement": "decrease of insulin-stimulated rate of glycogen synthesis", "setting": "[2]; 20 nM amylin, 1000 μU/mL insulin", "value": "approximately 83%"}, {"measurement": "reduction in the basal rate of glycogen synthesis", "setting": "[3]; basal insulin concentration 1 uU/ml", "value": 30, "unit": "%"}, {"measurement": "response of amylin-treated muscles to insulin", "setting": "[3]; insulin concentration giving half-maximal stimulation in non amylin-treated muscles", "value": "no response to insulin"}, {"measurement": "insulin concentration needed to overcome the effect of amylin in muscle", "setting": "[3]; supra-physiological level", "value": 1000, "unit": "uU/ml"}, {"measurement": "effect on basal or insulin-stimulated rates of formation of CO2 or triacyglycerol", "setting": "isolated adipocytes [4]", "value": "no effect"}, {"measurement": "effect on basal or insulin-stimulated incorporation of glucose into CO2 or triglyceride", "setting": "isolated adipocytes [5]", "value": "does not influence"}]}, {"substance": "insulin", "values": [{"measurement": "steady-state glucose infusion rate necessary to maintain euglycemia", "setting": "anaesthetised rats", "value": "26.7 ± 0.1", "unit": "mg/kg/min"}, {"measurement": "hepatic glucose output (HGO)", "setting": "anaesthetised rats", "value": "3.9 ± 2.7", "unit": "mg/kg/min"}, {"measurement": "suppression of hepatic glucose output (HGO)", "setting": "anaesthetised rats", "value": 69, "unit": "%"}, {"measurement": "glucose disposal rate (GDR)", "setting": "anaesthetised rats; FIG. 2B protocol, 3H-glucose, last 20 min of each period, basal GDR 11.2±0.7", "value": "35.6 ± 1.3", "unit": "mg/kg/min"}, {"measurement": "rise of GDR above basal", "setting": "anaesthetised rats; [7]", "value": "24 ± 0.9", "unit": "mg/kg/min"}, {"measurement": "mean steady-state glucose infusion rate", "setting": "anaesthetised rats", "value": "32.3 ± 0.3", "unit": "mg/kg/min"}, {"measurement": "mean steady-state plasma insulin level", "setting": "anaesthetised rats; absence of the CGRP infusion", "value": "695±105", "unit": "uU/ml"}, {"measurement": "mean steady-state plasma insulin level", "setting": "anaesthetised rats; presence of the CGRP infusion", "value": "591±86", "unit": "uU/ml"}, {"measurement": "increase in rate of glycogen synthesis", "setting": "[2]; 1000 μU/mL insulin added to media", "value": 3.7, "unit": "fold"}]}, {"substance": "calcitonin gene-related peptide [CGRP]", "values": [{"measurement": "inhibition of insulin-stimulated GDR", "setting": "anaesthetised rats; CGRP infusion rate 0.005 ug/kg/min", "value": "no inhibition"}, {"measurement": "inhibition of insulin-stimulated GDR", "setting": "anaesthetised rats; CGRP infusion rate 0.01 ug/kg/min", "value": "intermediate effect"}, {"measurement": "steady-state glucose infusion rate necessary to maintain euglycemia", "setting": "anaesthetised rats", "value": "18.0 ± 0.1", "unit": "mg/kg/min"}, {"measurement": "hepatic glucose output (HGO)", "setting": "anaesthetised rats", "value": 8.0, "unit": "mg/kg/min"}, {"measurement": "suppression of hepatic glucose output (HGO)", "setting": "anaesthetised rats", "value": 29, "unit": "%"}, {"measurement": "rise of GDR above basal", "setting": "anaesthetised rats; [7]", "value": "7.4 ± 1.6", "unit": "mg/kg/min"}, {"measurement": "mean steady-state glucose infusion rate", "setting": "anaesthetised rats", "value": "9.9 ± 0.3", "unit": "mg/kg/min"}, {"measurement": "effect on basal or insulin-stimulated 2-deoxyglucose uptake", "setting": "isolated adipocytes [6]", "value": "no effect"}, {"measurement": "effect on insulin-stimulated glucose uptake", "setting": "BC3H-1 myocytes", "value": "significantly inhibited"}]}]}
